# Assay results as given in patent publication US11839613B2, “Pyrimidine derivatives as PGE2 receptor modulators” (IDORSIA PHARMACEUTICALS LTD, priority 2017, dated 2023).
# What was measured:
# EP4 = EP4 (Homo sapiens (Human), UniProt P35408); experiment: hEP4 cAMP assay (BT549 breast cancer cells, HTRF cAMP); assay type: cell-based; details: antagonistic activity, PGE2 6 nM
# Procedure, shortened: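 BT549 breast cancer cells (endogenous EP4) in HBSS/20 mM HEPES/0.2% BSA/2 mM IBMX preincubated 45 min at RT with compound, then stimulated 30 min at RT with 6 nM PGE2 (final). cAMP read by competitive HTRF immunoassay, signal inversely proportional to cAMP.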
# EP2 = EP2 (Homo sapiens (Human), UniProt P43116); experiment: hEP2 cAMP assay (SF295 glioblastoma cells, HTRF cAMP); assay type: cell-based; details: antagonistic activity
# Procedure, shortened: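 PGE2-driven cAMP accumulation was measured by HTRF in SF295 cells, which express endogenous EP2 only. Cells in assay buffer with 2 mM IBMX were pre-incubated 45 min at RT, then incubated 30 min at RT. Detection used competition between cellular cAMP and d2-cAMP for a cryptate anti-cAMP antibody.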
# PTGER4 (EP4) = PTGER4 (EP4) (Homo sapiens (Human), UniProt P35408); experiment: cell-based
# Text: The system is based on the Enzyme Fragment Complementation Technology. Two complementing fragments of the b-galactosidase enzyme are expressed within stably transfected cells. The larger portion of b-gal, termed EA for Enzyme Acceptor, is fused to the C-terminus of b-arrestin 2. The smaller fragment, termed ProLink™ tag, is fused to PTGER2 (EP2) or PTRGER4 (EP4) at the C-terminus. Upon activation, b-arrestin is recruited which forces the interaction of ProLink and EA, allowing complementation of the two fragments of b-gal and the formation of a functional enzyme which is capable of hydrolysing the substrate and generating a chemiluminescent signal.
# Plate is incubated at 37° C., 5% CO2 for 24 hours.
# Stock solutions of test compounds are made at a concentration of 10 mM in DMSO, and serially diluted in DMSO to concentrations required for inhibition dose response curves (tested concentration range 10 μM-2 nM or 1 μM-0.2 nM).
# Five microliters of diluted compounds are transferred into the assay plate. Plate is pre-incubated 15 minutes at 37° C. Then five microliters of PGE2 (final conc. 20 nM) are transferred into the assay plate. Plate is incubated 120 minutes at 37° C.
# Twelve I of reagent are transferred to the assay plate and incubate for 1 hour at RT in the dark. Luminescence counts are read on a BMG Fluostar Optima reader according to manufacturer's instructions.
# For each compound concentration calculate of the percentage of activity compared to DMSO control value as average ±STDEV. (each concentration is measured in duplicate)
# PTGER2 (EP2) = PTGER2 (EP2) (Homo sapiens (Human), UniProt P43116); experiment: hEP2 b-arrestin assay (PathHunter HEK 293 PTGER2 b-arrestin cells); assay type: cell-based; details: antagonistic activity, beta-arrestin assay; read-out: hEP2 b-arr IC50
# Protocol: Plate is pre-incubated 15 minutes at 37° C. Then five microliters of PGE2 (final conc. 5 μM) are transferred into the assay plate. Plate is incubated 120 minutes at 37° C.
# (each concentration is measured in duplicate)
# Chain of EP4 (P35408 whole entry): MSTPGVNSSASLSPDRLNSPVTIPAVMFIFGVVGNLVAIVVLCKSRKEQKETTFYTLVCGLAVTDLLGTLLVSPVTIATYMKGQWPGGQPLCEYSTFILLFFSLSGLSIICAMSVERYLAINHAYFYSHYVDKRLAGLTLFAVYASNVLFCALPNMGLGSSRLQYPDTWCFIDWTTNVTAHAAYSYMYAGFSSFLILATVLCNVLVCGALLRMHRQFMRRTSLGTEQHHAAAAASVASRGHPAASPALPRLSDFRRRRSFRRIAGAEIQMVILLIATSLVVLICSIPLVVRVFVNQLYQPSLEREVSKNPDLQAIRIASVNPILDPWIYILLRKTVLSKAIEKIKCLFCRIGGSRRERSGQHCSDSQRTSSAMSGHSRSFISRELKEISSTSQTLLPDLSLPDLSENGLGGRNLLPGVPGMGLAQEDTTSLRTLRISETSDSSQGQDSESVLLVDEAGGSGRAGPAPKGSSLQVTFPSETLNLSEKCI
# Chain of PTGER4 (EP4) (P35408 whole entry): as above
# Chain of PTGER2 (EP2) (P43116 whole entry): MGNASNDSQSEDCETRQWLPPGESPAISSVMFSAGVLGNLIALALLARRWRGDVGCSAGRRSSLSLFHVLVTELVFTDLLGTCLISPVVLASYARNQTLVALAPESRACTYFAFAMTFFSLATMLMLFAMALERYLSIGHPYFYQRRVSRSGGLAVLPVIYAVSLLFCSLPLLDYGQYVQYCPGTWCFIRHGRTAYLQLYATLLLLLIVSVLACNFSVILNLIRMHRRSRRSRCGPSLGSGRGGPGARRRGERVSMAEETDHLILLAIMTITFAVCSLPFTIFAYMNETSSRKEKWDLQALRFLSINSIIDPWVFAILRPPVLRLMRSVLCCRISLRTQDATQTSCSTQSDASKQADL
# Chain of EP2 (P43116 whole entry): as above
Structure (SMILES),IC50 (EP4),IC50 (EP2),IC50 (PTGER4 (EP4)),IC50 (PTGER2 (EP2))
"CCOc1cc2c(cc1CCNc1cc(-c3ccc(C(=O)O)c(OC4CCC4)c3)ncn1)OCCO2 [Ex 196, 2-Cyclobutoxy-4-{6-[2-(7-ethoxy-2,3-dihydro-benzo[1,4]dioxin-6-yl)-ethylamino]-pyrimidin-4-yl}-benzoic acid]",217 nM,37 nM,199 nM,21 nM
O=C(O)c1ccc(-c2cc(NCCc3cc4ccoc4cc3F)ncn2)cc1OC1CCC1 [Ex 200],227 nM,108 nM,510 nM,57 nM
CCOc1cc(-c2cc(NCCc3cc4c(cc3OC)OCCO4)ncn2)ccc1OC(C)C(=O)O (centres unmarked) [Ex 201],229 nM,133 nM,111 nM,83 nM
CCOc1cc(-c2cc(NCCc3ccc4ccccc4c3C)ncn2)ccc1NCC(=O)O [Ex 205],244 nM,190 nM,47 nM,118 nM
"COc1cc2occc2c(C)c1CCNc1cc(-c2ccc(C(=O)O)c(OC3CCC3)c2)ncn1 [Ex 208, 2-Cyclobutoxy-4-{6-[2-(6-methoxy-4-methyl-benzofuran-5-yl)-ethylamino]-pyrimidin-4-yl}-benzoic acid]",248 nM,5 nM,130 nM,8 nM
CCOc1cc(-c2cc(NCCc3c(F)c(F)c4cc(C)oc4c3OC)ncn2)ccc1C(=O)O [Ex 215],259 nM,650 nM,379 nM,1590 nM
CCOc1cc(-c2cc(NCCc3cc4sccc4cc3OC)ncn2)ccc1C(=O)O [Ex 218],278 nM,405 nM,651 nM,160 nM
"CSc1cc(-c2cc(NCCc3ccc4occc4c3)ncn2)ccc1C(=O)O [Ex 248, 4-[6-(2-Benzofuran-5-yl-ethylamino)-pyrimidin-4-yl]-2-methylsulfanyl-benzoic acid]",366 nM,50 nM,270 nM,132 nM

# The remaining compounds from weak to strong by IC50 (EP4), led by results:
IC50 (EP4),IC50 (EP2),IC50 (PTGER4 (EP4)),IC50 (PTGER2 (EP2)),Structure (SMILES)
211 nM,12 nM,349 nM,10 nM,"COc1cc2occc2cc1CCNc1cc(-c2ccc(C(=O)O)c(SC)c2)ncn1 [Ex 193, 4-{6-[2-(6-Methoxy-benzofuran-5-yl)-ethylamino]-pyrimidin-4-yl}-2-methylsulfanyl-benzoic acid]"
210 nM,69 nM,153 nM,76 nM,"CCOc1cc2c(cc1CCNc1cc(-c3ccc(CC(=O)O)c(OCC)c3)ncn1)OCCO2 [Ex 192, (2-Ethoxy-4-{6-[2-(7-ethoxy-2,3-dihydro-benzo[1,4]dioxin-6-yl)-ethylamino]-pyrimidin-4-yl}-phenyl)-acetic acid]"
208 nM,530 nM,108 nM,158 nM,CCOc1cc(-c2cc(NCCc3ccc4sccc4c3)ncn2)ccc1CC(=O)O [Ex 189]
200 nM,164 nM,378 nM,171 nM,"CCOc1cc(-c2cc(NCCc3cc4c(cc3C)OCCO4)ncn2)ccc1OCC(=O)O [Ex 184, (2-Ethoxy-4-{6-[2-(7-methyl-2,3-dihydro-benzo[1,4]dioxin-6-yl)-ethylamino]-pyrimidin-4-yl}-phenoxy)-acetic acid]"
178 nM,67 nM,223 nM,115 nM,"CCCOc1cc(-c2cc(NCCc3ccc4ccccc4c3C)ncn2)ccc1C(=O)O [Ex 183, 4-{6-[2-(1-Methyl-naphthalen-2-yl)-ethylamino]-pyrimidin-4-yl}-2-propoxy-benzoic acid]"
138 nM,62 nM,2160 nM,177 nM,"COc1cc2c(cc1CCNc1cc(-c3ccc4c(C(=O)O)coc4c3)ncn1)OCCO2 [Ex 199, 6-{6-[2-(7-Methoxy-2,3-dihydro-benzo[1,4]dioxin-6-yl)-ethylamino]-pyrimidin-4-yl}-benzofuran-3-carboxylic acid]"
